# Laboratory results from patent publication EP2982983B1, “METHOD FOR DRUG SUSCEPTIBILITY TESTING OF MYCOBACTERIUM TUBERCULOSIS BY ELECTRON PARAMAGNETIC RESONANCE” (priority 2014, dated 2016).
# What was measured:
# [1] = tested on: M. tuberculosis H37Rv (ATCC 27294); assay type: cell-based, Mycobacterium tuberculosis; details: one day (24 h) exposure to the Cmax of the drug (rifampicin 8 µg/ml, moxifloxacin 4 µg/ml, amikacin 8 µg/ml), compared with control without drug
# [2] = species not given; cited from earlier work
Compound,rate of CP^• formation [1],Cmax value (maximum drug concentration in serum) [2] [ng/mL]
NCC[C@H](O)C(=O)N[C@@H]1C[C@H](N)[C@@H](O[C@H]2O[C@H](CN)[C@@H](O)[C@H](O)[C@H]2O)[C@H](O)[C@H]1O[C@H]1O[C@H](CO)[C@@H](O)[C@H](N)[C@H]1O [amikacin],quite high rate,8000
COc1c(N2C[C@@H]3CCCN[C@@H]3C2)c(F)cc2c(=O)c(C(=O)O)cn(C3CC3)c12 [moxifloxacin],,4000
CO[C@H]1/C=C/O[C@@]2(C)Oc3c(C)c(O)c4c(O)c(c(/C=N/N5CCN(C)CC5)c(O)c4c3C2=O)NC(=O)/C(C)=C\C=C\[C@H](C)[C@H](O)[C@@H](C)[C@@H](O)[C@@H](C)[C@H](OC(C)=O)[C@@H]1C [rifampicin],,8000
